Test results as given in paper PMC4239610, “A Peptide Derived from G0/G1 Switch Gene 2 Acts as Noncompetitive Inhibitor of Adipose Triglyceride Lipase” (The Journal of Biological Chemistry, 2014).

Legend:
[1] = test system: ATGL; conditions: cited from earlier work
Source text: Extensive research on the physiological role of ATGL has identified complex regulatory mechanisms for its activity on the transcriptional and post-translational level ([12], [13]). Direct protein-protein interaction of ATGL with the protein comparative gene identification 58 (CGI-58) increases ATGL activity up to 20-fold ([14]). Inhibition of ATGL due to direct interaction with the small, 103-amino acid protein G0/G1 switch gene 2 (G0S2) was discovered in 2010 and confirmed using human and murine proteins ([15][–][21]). The highest G0S2 expression is found in adipose tissues, but it is also pr ... || Activation of ATGL by CGI-58 is considered as fasting response upon β-adrenergic stimulation and phosphorylation of PKA ([12]). Recent studies have strengthened the role of G0S2 as the so-called master regulator of basal and stimulated lipolysis ([27]). mRNA levels of G0S2 respond strongly to hormonal stimuli, yet the dose-dependent inhibition of ATGL by G0S2 itself is reported to be independent of phosphorylation events ([18], [20], [21], [28], [29]). Thus, regulation of the expression levels of G0S2, and consequently the protein concentration, resembles a potent mean to regulate lipid mobili ... || Next, we investigated the specificity of the peptide hGW2052. ATGL and HSL together account for more than 95% of intracellular TG hydrolase activity in white adipose tissue (WAT) ([48]). For both enzymes, small molecule inhibitors are available. […] WAT lysates of WT and Atgl-KO mice were tested for TG hydrolase activity in the presence of Atglistatin, Hi 76–0079, and hGW2052. Addition of the ATGL inhibitors hGW2052 or Atglistatin redu ... || (+ 3 further places)

[2] = test system: TG hydrolase activity of WAT lysates from WT animals; assay: TG hydrolase activity of WAT lysates of overnight fasted WT mice; format: biochemical, mouse
Description: (§1) Adipose tissue samples from overnight fasted wild-type and Atgl-KO mice were washed in PBS (137 mM NaCl, 2.7 mM KCl, 10 mM Na2HPO4, 2 mM KH2PO4) containing 1 mM EDTA and homogenized on ice in sucrose solution (see above) using an Ultra Turrax (IKA, Staufen, Germany).
FIGURE 4.

[3] = test system: WAT TG hydrolase activity derived from Atgl-KO mice; assay: TG hydrolase activity of WAT lysates of Atgl-KO mice; format: biochemical, mouse; conditions: overnight fasted, 1.4 μM hGW2052, 40 μM Atglistatin, Fig. 4A
Description: as §1
FIGURE 4.

[4] = cited from earlier work
Source text: Adipose triglyceride lipase (ATGL) hydrolyzes TGs into diacylglycerols and FAs and is required for efficient intracellular lipolysis ([7]). Global inactivation of ATGL activity leads to massive TG accumulation in all tissues, including the heart of Atgl knock-out mice ([8]). Accordingly, patients with ATGL deficiency suffer from cardiac and skeletal muscle myopathy and require heart transplants at a relatively young age ([9]). However, genetic and small molecule-mediated inactivation of ATGL is also associated with beneficial effects on plasma lipid parameters and insulin sensitivity; Atgl-KO ... || Genetic disruption of Atgl results in severe heart defects due to massive TG accumulation in cardiac muscle ([8], [55]). Thus, the application of a synthetic, competitive ATGL inhibitor, such as Atglistatin, as a therapeutic tool appears limited. […] Th ...

[5] = test system: mATGL; assay: TG hydrolase activity, E. coli expressed mATGL, CGI-58 activated, hG0S2 truncations (Fig. 1C-E); format: biochemical, mouse; conditions: mATGL E. coli extract (50 μg), 2.5 μg purified mCGI-58, 30 μg lysate of E. coli expressing hG0S2 variant, [3H]triolein, triplicates
Description: (§2) Protein concentrations were determined as described below.
(§3) FIGURE 1. Minimal sequence requirements of human G0S2 for ATGL inhibition. A, graphical representation of full-length and shortened versions of hG0S2, those capable of inhibiting ATGL activity are illustrated in black. The largely hydrophobic sequence stretch from Val-28 to Met-42 is depicted in light gray. B–E, activity assays were performed in the presence of CGI-58 as indicated by an asterisk (ATGL*). G0S2 and variants thereof were expressed in E. coli and added as cell lysates. Overexpressed mATGL from E. coli lysates was used for all assays with the exception of the assay shown in B. B, inhibition of TG hydrolase activity of mATGL containing COS-7 cell extracts by WT and C-terminally truncated hG0S2 variants. C, inhibition of TG hydrolase activity of mATGL by WT and C-terminally truncated hG0S2 variants. D, inhibition of TG hydrolase activity of mATGL by WT hG0S2 and variants with N-terminal deletions. E, effect of different N- and C-terminal truncations in hG0S2 on mATGL activity. The fusion tag smt3 is shown as control.

[6] = test system: mATGL; assay: TG hydrolase activity, COS-7 cell extracts containing mATGL, CGI-58 activated (Fig. 1B); format: biochemical, mouse; conditions: COS-7 cell extract with mATGL, hG0S2 variants as E. coli cell lysates (30 μg), [3H]triolein substrate, triplicates
Description: as §2
Cells were harvested 48 h after transfection. […] Protein concentrations were determined as described below.
as §3

[7] = test system: HSL; conditions: ref [10], [48], [49]; cited from earlier work
Description: Next, we investigated the specificity of the peptide hGW2052. ATGL and HSL together account for more than 95% of intracellular TG hydrolase activity in white adipose tissue (WAT) ([48]). For both enzymes, small molecule inhibitors are available. […] WAT lysates of WT and Atgl-KO mice were tested for TG hydrolase activity in the presence of Atglistatin, Hi 76–0079, and hGW2052. Addition of the ATGL inhibitors hGW2052 or Atglistatin redu ... || To evaluate the specificity of the inhibitory peptide for ATGL, we analyzed the effect of hGW2052 on the activities of phospholipases, intracellular lipases, and extracellular lipases. ATGL belongs to the patatin domain containing family of proteins (PNPLA). […] Although PNPLA family members show high sequence conservation within their common patatin domain, no effects on lysophospholipase activities of PNPLA6 or PNPLA7 could b ...

[8] = single administration to mice, ref [10]

Compound: CCCCCCCC/C=C\CCCCCCCC(=O)SCCNC(=O)CCNC(=O)[C@H](O)C(C)(C)COP(=O)(O)OP(=O)(O)OC[C@H]1O[C@@H](n2cnc3c(N)ncnc32)[C@H](O)[C@@H]1OP(=O)(O)O [oleoyl-CoA]
- IC50 ([1]; ref [13]): 33 µM

Compound: CN(C)C(=O)Nc1cccc(-c2ccc(N(C)C)cc2)c1 [Atglistatin]
- IC50 for ATGL (in words) ([1]; Atglistatin elsewhere ref [10]): low micromolar range
- dependence of ATGL inhibition on CGI-58 ([1]; ref [10], [13]): independent of the presence of CGI-58
- mode of ATGL inhibition ([1]; ref [10], [13]): inhibits ATGL in a competitive manner
- specificity of inhibition (in words), ATGL ([1]; ref [10], [48], [49]): act as specific inhibitors for ATGL and HSL, respectively
- reduction of TG hydrolase activity of WAT lysates ([2]; 40 μM Atglistatin, Fig. 4A): 49%
- inhibition of WAT TG hydrolase activity, Atgl-KO (result in words) [3]: Neither hGW2052 nor Atglistatin inhibited WAT TG hydrolase activity derived from Atgl-KO mice
- plasma FA and TG concentrations ([4]; WT mice, ref [8], [10]): reduced plasma FA and TG concentrations
- TG accumulation in tissues [4, 8]: TG accumulation in liver but not the heart
- tissue accumulation of the inhibitor [4, 8]: accumulation of the inhibitor in liver and adipose tissues

Compound: hG0S2 Lys-20–Met-43: N- and C-terminally truncated hG0S2, Lys-20–Met-43 (KGKMVKLYVLGSVLALFGVVLGLM; UniProt P27469 20-43, looked up, fragment)
- inhibition of TG hydrolase activity (result in words) [5]: neither hG0S2 Tyr-27–Ala-52 nor hG0S2 Lys-20–Met-43 exhibited full inhibitory capacity
- inhibition of TG hydrolase activity (result in words) ([5]; listed as Lys-20–Met-43): did not result in G0S2 variants that were able to inhibit ATGL efficiently

Compound: hG0S2 Gly-30–Ala-52: N- and C-terminally truncated hG0S2, Gly-30–Ala-52 (GSVLALFGVVLGLMETVCSPFTA; UniProt P27469 30-52, looked up, fragment)
- inhibition of TG hydrolase activity (result in words) [5]: had lost all inhibitory activity

Compound: hG0S2 truncated at residue Leu-40: hG0S2 truncated at residue Leu-40 (C-terminal truncation) (METVQELIPLAKEMMAQKRKGKMVKLYVLGSVLALFGVVL; UniProt P27469 1-40, looked up, fragment)
- inhibition of TG hydrolase activity (result in words) [6]: Inhibition was significantly reduced

Compound: hG0S2 Leu-10–Ala-52: N- and C-terminally truncated hG0S2, Leu-10–Ala-52 (LAKEMMAQKRKGKMVKLYVLGSVLALFGVVLGLMETVCSPFTA; UniProt P27469 10-52, looked up, fragment)
- inhibition of TG hydrolase activity (result in words) [5]: fully retained their activity to inhibit ATGL

Compound: CN(C(=O)n1cncn1)c1ccccc1 [Hi 76-0079, N-methyl-phenyl carbamoyl triazole]
- specificity of inhibition (in words), HSL [7]: act as specific inhibitors for ATGL and HSL, respectively
- reduction of TG hydrolase activity of WAT lysates ([2]; 25 μM Hi 76-0079, Fig. 4A): 67%

Compound: hG0S2_1–43: C-terminally truncated hG0S2 variant Met-1–Met-43 (METVQELIPLAKEMMAQKRKGKMVKLYVLGSVLALFGVVLGLM; UniProt P27469 1-43, looked up, fragment)
- inhibition of TG hydrolase activity (result in words) [5]: still exerts the full inhibitory effect on ATGL
- inhibition of TG hydrolase activity (result in words) ([5]; listed as Met-1–Met-43): fully able to inhibit ATGL
